From patent US11578130B2, “Regulatable chimeric antigen receptor” (Novartis AG, priority 2013, dated 2023)
Read-outs that look alike come from different tables or passages of the source.

Columns and labels:
[1] = tested on: A/H1N1/California/07/2009 influenza; assay: Serum anti-influenza IgG and IgM levels before and 4 weeks post influenza vaccination; format: in vivo, human; conditions: RAD001 versus placebo cohorts, Kruskal-Wallis rank sum test
Experimental: FIGS. 30A and 30B are graphic representations of IgG and IgM levels before and after influenza vaccination. Levels of anti-A/H1N1/California/07/2009 influenza IgG and IgM were measured in serum obtained from subjects before and 4 weeks post influenza vaccination.

JNL cells = assay: Single vector CD19 RCAR constructs in JNL cells, NFAT reporter activation by dimerization molecule; format: cell-based; conditions: nM to sub-nM doses
Excerpt: The constructs and viral particles were made and tested essentially as described in Example 11. Viral particles were introduced into JNL cells and evaluated for activity essentially as described in Example 1 except that the target was CD19 (as opposed to EGFRviii).
Construct 143775 was introduced into cells and the affect of dimerization molecule concentration on activation evaluated essentially as described in Example 14.

B/Brisbane/60/2008 = assay: Clinical trial: hemagglutination inhibition titers and seroconversion, vaccine strain B; format: in vivo, human
Experimental: The trial was observer-blind because the placebo in the RAD001 0.5 mg daily and 20 mg weekly cohorts differed slightly from the RAD001 tablets in those cohorts. […] The treatment duration for all cohorts was 6 weeks during which time subjects underwent safety evaluations in the clinic every 2 weeks. After subjects had been dosed for 4 weeks, RAD001 steady state levels were measured pre-dose and at one hour post dose. After completing the 6 week course of study drug, subjects were given a 2 week drug free break to reverse any possible RAD001-induced immunosuppression, and then were given a 2012 seasonal influenza vaccination (Agrippal®, Novartis Vaccines and Diagnostics, Siena, Italy) containing the strains H1N1 A/California/07/2009, H3N2 A/Victoria/210/2009, B/Brisbane/60/2008. Four weeks after influenza vaccination, subjects had serum collected for influenza titer measurements. Antibody titers to the 3 influenza vaccine strains as well as to 2 heterologous strains (A/H1N1 strain A/New Jersey/8/76 and A/H3N2 strain A/Victoria/361/11) were measured by standard hemagglutination inhibition assay (Kendal, A P et al. (1982) Concepts and procedures for laboratory-based influenza surveillance. Atlanta: Centers for Disease Control and Prevention B17-B35).
The ability of RAD001 to improve immune function in elderly volunteers was evaluated by measuring the serologic response to the 2012 seasonal influenza vaccine. The hemagglutination inhibition (HI) geometric mean titers (GMT) to each of the 3 influenza vaccine strains at baseline and 4 weeks after influenza vaccination are provided in Table 22. The primary analysis variable was the HI GMT ratio (4 weeks post vaccination/baseline). […] This endpoint was chosen because a 1.2-fold increase in the influenza GMT ratio induced by the MF-59 vaccine adjuvant was associated with a decrease in influenza illness (Iob, A et al. (2005) Epidemiol Infect 133:687-693).
Rates of seroconversion 4 weeks after influenza vaccination were also evaluated. Seroconversion was defined as the change from a negative pre-vaccination titer (i.e., HI titer <1:10) to post-vaccination HI titer ≥1:40 or at least 4-fold increase from a non-negative (≥1:10) pre-vaccination HI titer.

[2] = tested on: A/H1N1 strain A/New Jersey/8/76; format: in vivo, human
[3] = tested on: A/H1N1/California/07/2009; assay: Clinical trial: serum IgG and IgM specific for A/H1N1/California/07/2009; format: in vivo, human; conditions: RAD001 versus placebo treated cohorts
Experimental: Levels of IgG and IgM specific for the A/H1N1/California/07/2009 were measured in serum samples taken before and 4 weeks after influenza vaccination as described previously (Spensieri, F. et al. (2013) Proc. Natl. Acad. Sci. USA 110:14330-14335). Results were expressed as fluorescence intensity.

[4] = tested on: PD-1 positive CD4 and CD8 T cells; assay: Clinical trial: immunophenotyping of PBMC by flow cytometry; format: in vivo, human
[5] = Clinical trial: RAD001 trough levels in blood; format: in vivo, human
[6] = Clinical trial: energy and exercise questionnaires one year after dosing; format: in vivo, human; conditions: 0.5 mg daily dosing cohort
[7] = tested on: Jurkat cells with NFAT-LUC reporter (JNL); assay: Activation of RCAR half switches (intracellular FKBP/FRB) by RAD001, NFAT luciferase; format: cell-based; conditions: RCAR half switches with CD27, CD28, ICOS, OX40 or 41BB costimulatory domain; RAD001 50 nM
Experimental: Jurkat cells with NFAT-LUC reporter (JNL) were grown to the density of 0.5×10^6/ml in Jurkat cell growth media with puromycin at 0.5 μg/ml. For each transfection 2.5×10^6 cells were spin down at 100 g for 10 minutes. Two μg of DNA per construct were used per transfection. Amaxa Nucleofector solution V and supplement I was mixed and 100 μl was added into the tube with DNA construct. The mixture was then added to the cells and transferred to the electroporation cuvette. Electroporation was done under setting X-001 using Amaxa Nucleofector II Device. 0.5 ml of growth media was added immediately after electroporation and the mixture were transferred into 2 ml growth media in one well of the 6-well plate.
After one hour, RAD001 compound was delivered at 50 nM when testing RCARs with different costimulatory signaling domains (FIGS. 44A and 44B), or various concentrations: 0 nM, 0.01 nM, 0.03 nM, 0.1 nM, 0.3 nM, 1 nM, 3 nM, and 10 nM (FIGS. 45A and 45B). Tissue culture plate was coated with 5 μg/ml of anti anti-CD19 antibody or isotype control for 2 hrs, blocked with the blocking buffer (DPBS with 5% serum) for 1 hour. The transfected cells with or without RAD001 were resuspended and added to the target plate with 100 μl per well and incubated for 18 hrs. […] The samples were incubated for 5 min at 37° C. and then luminescence is measured using Envision plate reader.

[8] = cited from earlier work

With `CO[C@H]1C[C@@H]2CC[C@@H](C)[C@@](O)(O2)C(=O)C(=O)N2CCCC[C@H]2C(=O)O[C@H]([C@H](C)C[C@@H]2CC[C@@H](OCCO)[C@H](OC)C2)CC(=O)[C@H](C)/C=C(\C)[C@@H](O)[C@@H](OC)C(=O)[C@H](C)C[C@H](C)/C=C/C=C/C=C/1C` [RAD001, (1R,9S,12S,15R,16E,18R,19R,21R,23S,24E,26E,28E,30S,32S,35R)-1,18-dihydroxy-12-{(1R)-2-[(1S,3R,4R)-4-(2-hydroxyethoxy)-3-methoxycyclohexyl]-1-methylethyl}-19,30-dimethoxy-15,17,21,23,29,35-hexamethyl-11,36-dioxa-4-aza-tricyclo[30.3.1.04,9]hexatriaconta-16,24,26,28-tetraene-2,3,10,14,20-pentaone] the “change from baseline to 4 weeks post vaccination in anti-H1N1 influenza IgG levels” value [1] was “No significant difference”, the “change from baseline to 4 weeks post vaccination in anti-H1N1 influenza IgM levels” value [1] was “No significant difference” and the “activation of RCAR (Construct 143775) over dimerization molecule concentration” value (JNL cells) was “effective at a broad range of concentrations”. For the same molecule, the “HI GMT, B” value (B/Brisbane/60/2008; Baseline (2 weeks prior to influenza vaccination), RAD001 0.5 mg daily, N = 50) was 44.2, the “HI GMT, B” value (B/Brisbane/60/2008; Baseline (2 weeks prior to influenza vaccination), RAD001 5 mg weekly, N = 49) was 64.8 and the “Percent of subjects with seroconversion to influenza 4 weeks after vaccination, B” value (“Percent of subjects with seroconversion” for short) (B/Brisbane/60/2008; Intention to Treat Population, 0.5 mg, N = 48) was 27%. For the same molecule, the “Percent of subjects with seroconversion” value (B/Brisbane/60/2008; Intention to Treat Population, 5 mg, N = 49) was 22%, the “Percent of subjects with seroconversion” value (B/Brisbane/60/2008; Intention to Treat Population, 20 mg, N = 48) was 19% and the “GMT ratio (week 4 post vaccination/baseline), B” value (B/Brisbane/60/2008; RAD001 0.5 mg daily, N = 50) was 2.5. The “GMT ratio (week 4 post vaccination/baseline), B” value (B/Brisbane/60/2008; RAD001 5 mg weekly, N = 49) was 2.2, the “GMT ratio (week 4 post vaccination/baseline), B” value (B/Brisbane/60/2008; RAD001 20 mg weekly, N = 49) was 2.1 and the “Percent of subjects with seroconversion” value (B/Brisbane/60/2008; Subjects with Baseline Titers <=40, 0.5 mg, * p-value < 0.05 versus placebo) was 40* Percent. The “Percent of subjects with seroconversion” value (B/Brisbane/60/2008; Subjects with Baseline Titers <=40, 5 mg) was 33%, the “Percent of subjects with seroconversion” value (B/Brisbane/60/2008; Subjects with Baseline Titers <=40, 20 mg) was 28% and the “HI GMT, B” value (B/Brisbane/60/2008; Week 4 after influenza vaccination, RAD001 0.5 mg daily, N = 50) was 98.4. For the same molecule, the “HI GMT, B” value (B/Brisbane/60/2008; Week 4 after influenza vaccination, RAD001 5 mg weekly, N = 49) was 117.3, the “HI GMT, B” value (B/Brisbane/60/2008; Week 4 after influenza vaccination, RAD001 20 mg weekly, N = 49) was 99.2 and the “Percentage of subjects who seroconvert to heterologous strain 4 weeks after seasonal influenza vaccination, A/H1N1 strain: A/New Jersey/8/76” value ([2]; RAD001 5 mg weekly) was 16%. The “Percentage of subjects who seroconvert to heterologous strain 4 weeks after seasonal influenza vaccination, A/H1N1 strain: A/New Jersey/8/76” value ([2]; RAD001 20 mg weekly) was 8%, the “increase in the HI GMT ratios for the heterologous strain” value ([2]; RAD001 as compared to placebo cohorts) was “higher” and the “post-vaccination anti-influenza IgM and IgG levels” value [3] was “did not differ”. The “percentage of PD-1 negative CD4 T cells” value ([4]; RAD001 cohorts as compared to the placebo cohorts) was “increased”, the “percentage of CD4 PD-1 positive T cells” value ([4]; week 6 and 12, all RAD001 cohorts) was “decreased from baseline” and the “percentage of CD8 PD-1 positive cells” value ([4]; week 6 and 12, the two lower dose RAD001 cohorts) was “decreased from baseline”. The “average RAD001 trough level” value ([5]; 5 mg weekly, 0.3 ng/ml is the lower limit of quantification) was “below detection limits”, the “trough level of study regimens relative to approved regimens, fold lower” value ([5]; dosing regimens used in the immunization study) was 3-20 fold and the “self-reported energy and exercise ability compared to placebo” value [6] was “increased energy and exercise ability”. The “target-dependent NFAT activity” value [7] was “all able to activate the target-dependent NFAT activity”, the “trough level of RAD001” value ([8]; 10 mg daily oncology dosing regimen) was “approximately 20 ng/ml” and the “trough level of RAD001” value ([8]; 0.75-1.5 mg bid transplant dosing regimen) was “approximately 3 ng/ml”.
